Consider one compound from US20220313626A1, “SMALL MOLECULE INHIBITORS FOR TREATING CANCER IN A SUBJECT HAVING TUMORS WITH HIGH INTERSTITIAL PRESSURE” (GUANGZHOU MAXINOVEL PHARMACEUTICALS CO., LTD., priority 2019, published 2022).

SMILES strings stand for the structures.

This assay has as its system 4T1 tumor cells. In words: Anti-tumor efficacy in the subcutaneous 4T1 murine breast cancer model in BALB/c mice. It counts as in vivo. The following applies: 4T1, BALB/c mice; for TGI / Tumor Volume: PO, BID, 20 days. As to the method: Materials required for the experiment: Antibody: mouse PD-1 antibody, Product specifications: 7.09 mg/mL (50 mg/mL), Lot No.: 695318A1 purchased from BioXcell, storage at 4 °C. Experiment animal: 60 BALB/C mice, female, 6˜8 weeks old, 20˜23 g, purchased from Shanghai Lingchang Biotechnology Co, Ltd. Formulation material: castor oil (Cremophor RH40), CAS No.: 61788-85-0, Lot No.: 29761847G0, purchased from Shanghai Xietai Chemical Co. Ltd.; β-cyclodextrin (SBE-β-CD), CAS No.:128446-35-5, Lot No.: 20180110, purchased from Shanghai Shaoyuan Chemical Co. Ltd.; RPMI-1640 culture medium, Art. No.: 1869036, Lot No.:11875-093, purchased from Gibco Co. Ltd.; PBS, Art. No.: SH30256.01, Lot No.: AB10141338, purchased from HyClone Co. Ltd.; Fetal bovine serum: CAS No.: 10099-141, Lot No.: 1966174C, purchased from Gibco Co. Ltd.
Cell preparation and implantation: 4T1 cells (CRL-2539™) were cultured with RPMI 1640 supplemented with 10% heat inactivated FBS at 37° C. in 5% CO2 incubator. Cells were passaged 3 times a week. Cells were harvested, counted and passaged, inoculated when around 70% confluent.
Tumor cell inoculation and group administration: The 50 uL cell suspension containing 1×10^5 4T1 tumor cells (cells suspended in base RPMI-1640 medium) was inoculated into the fourth fat pad of the left abdomen of mice. On the second day after inoculation, according to the order of tumor inoculation, stratified randomization was used to group and start the administration on the day of grouping.
Preparation of test substances: Preparation of formulation: 490 mL of sterile water was added into the volumetric flask with magnetic stirring to have a vortex. 100 g of castor oil (Cremophor RH40) was added with a spoon slowly into the vortex and the solution was kept stirring. 200 g of β-cyclodextrin (SBE-β-CD) was added while the solution was kept stirring until the solution was clear, and the total volume was set to 1000 mL, which contained 10% (w/v) Cremophor RH40+20% (w/v) an aqueous solution of SBE-β-CD.
Preparation of Compound Suspension: 178.88 mg compound was weighed and 14.817 mL 10% (w/v) Cremophor RH40+20% (w/v) SBE-β-CD aqueous solution were added. The suspension solution with a concentration of 12.0 mg/mL was obtained by fully mixing with magnetic stirring. 7.0 mL of the compound suspension solution with concentration of 12.0 mg/mL was pipetted and 7.0 mL aqueous formulation solution was added. The suspension solution with a concentration of 6.0 mg/mL was obtained by fully mixing with magnetic stirring, 7.0 mL of the compound suspension solution with concentration of 6.0 mg/mL was pipetted and 7.0 mL aqueous formulation solution was added. The suspension solution with a concentration of 3.0 mg/mL was obtained by fully mixing with magnetic stirring. 7.0 mL of the compound suspension solution with concentration of 3.0 mg/mL was pipetted and 7.0 mL aqueous formulation solution was added. The suspension solution with a concentration of 1.5 mg/mL was obtained by fully mixing with magnetic stirring. The compound suspension solution was prepared once a day.
Preparation of mPD-1 Antibody: 0.339 mL mPD-L1 antibody (7.09 mg/mL) original solution was pipetted and 2.061 mL PBS solution was added. The solution was fully mixed and the final concentration of 1 mg/mL solution was obtained.
Procedure: The mice in the vehicle group were weighed and recorded in the electronic balance according to their numbers. The mice in the vehicle group were given prepared formulation solution twice a day by oral administration according to their body weight with a capacity of 0.1 mL/10 g. Each mouse spent about 20 seconds and 10 mice in each group shared for about 5 minutes.
The mice in the antibody (10 mg/kg) group were weighed and recorded in the electronic balance according to their numbers. The mice in the antibody group were given prepared antibody solution twice a week by IP administration according to their body weight with a capacity of 0.1 ml/10 g. […]

For the compound `Cc1c(/C=C/c2cc(CN[C@@](C)(CO)C(=O)O)ccc2C(F)(F)F)cccc1-c1ccccc1` [Compound], the tumour growth inhibition (TGI) came out at 19.96% (15 mg/kg), 33.34% (30 mg/kg), 36.32% (60 mg/kg) and 41.55% (120 mg/kg). In addition, the “Tumor Volume” value (15 mg/kg) amounted to 689.03 ± 43.97 mm^3, the “Tumor Volume” value (30 mg/kg) was determined as 573.9 ± 43.18 mm^3, the “Tumor Volume” value (60 mg/kg) is 548.24 ± 31.39 mm^3 and the “Tumor Volume” value (120 mg/kg) is given as 503.16 ± 32.93 mm^3. This compound also displayed a minimum effective dose (p<0.05) of 30 mpk.
